Series [1] addresses T1, human alpha3beta4 nAChR (Homo sapiens, UniProt P30926+P32297). Kind of series: Agonist activity at human alpha3beta4 nAChR expressed in Xenopus oocytes (two-electrode voltage clamp). The class given is cell-based. Particulars: for agonist character at nAChR alpha3beta4: in words. From the text: (§1) Agonist Preparation: See Example 1.
(Two-electrode voltage clamp holds a large cell at a set potential and records current.)

In series [2] the target is T2, human alpha3alpha5beta4 nAChR (Homo sapiens, UniProt P30926+P32297). Nature of the series: Agonist activity at human alpha3alpha5beta4 nAChR expressed in Xenopus oocytes (two-electrode voltage clamp). Particulars: for agonist character at nAChR alpha3alpha5beta4: in words; for EC50: EC50 at nAChR alpha3alpha5beta4, test concentrations 0.1-300 uM.
T2 sequence (P32297 32-505): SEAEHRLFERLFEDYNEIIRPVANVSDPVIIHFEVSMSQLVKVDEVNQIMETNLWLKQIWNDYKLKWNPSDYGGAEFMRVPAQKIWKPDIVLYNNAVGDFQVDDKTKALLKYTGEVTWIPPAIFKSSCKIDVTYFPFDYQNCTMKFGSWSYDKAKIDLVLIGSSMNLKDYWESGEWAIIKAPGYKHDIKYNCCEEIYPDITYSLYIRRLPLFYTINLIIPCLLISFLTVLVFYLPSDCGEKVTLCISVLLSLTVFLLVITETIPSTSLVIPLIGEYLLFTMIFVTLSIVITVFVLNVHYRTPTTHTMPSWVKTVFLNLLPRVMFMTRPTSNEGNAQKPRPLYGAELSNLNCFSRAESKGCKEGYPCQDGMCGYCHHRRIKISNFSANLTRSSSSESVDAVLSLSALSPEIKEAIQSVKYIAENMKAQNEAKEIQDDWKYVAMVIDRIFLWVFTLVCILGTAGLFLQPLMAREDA
T2 sequence (P30532 23-468 partner): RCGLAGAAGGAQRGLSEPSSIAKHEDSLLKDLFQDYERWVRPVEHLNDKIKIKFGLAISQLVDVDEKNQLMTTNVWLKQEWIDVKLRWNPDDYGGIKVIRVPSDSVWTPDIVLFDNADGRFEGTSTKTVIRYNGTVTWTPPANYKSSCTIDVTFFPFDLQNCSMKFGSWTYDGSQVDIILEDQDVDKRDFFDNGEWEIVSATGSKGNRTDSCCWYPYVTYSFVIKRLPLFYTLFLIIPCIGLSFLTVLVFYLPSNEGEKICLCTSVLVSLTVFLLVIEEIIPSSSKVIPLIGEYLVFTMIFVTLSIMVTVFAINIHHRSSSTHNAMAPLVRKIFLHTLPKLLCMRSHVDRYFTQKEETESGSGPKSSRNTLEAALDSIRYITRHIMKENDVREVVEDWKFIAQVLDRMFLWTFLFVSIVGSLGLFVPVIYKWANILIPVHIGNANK
T2 sequence (P30926 22-498): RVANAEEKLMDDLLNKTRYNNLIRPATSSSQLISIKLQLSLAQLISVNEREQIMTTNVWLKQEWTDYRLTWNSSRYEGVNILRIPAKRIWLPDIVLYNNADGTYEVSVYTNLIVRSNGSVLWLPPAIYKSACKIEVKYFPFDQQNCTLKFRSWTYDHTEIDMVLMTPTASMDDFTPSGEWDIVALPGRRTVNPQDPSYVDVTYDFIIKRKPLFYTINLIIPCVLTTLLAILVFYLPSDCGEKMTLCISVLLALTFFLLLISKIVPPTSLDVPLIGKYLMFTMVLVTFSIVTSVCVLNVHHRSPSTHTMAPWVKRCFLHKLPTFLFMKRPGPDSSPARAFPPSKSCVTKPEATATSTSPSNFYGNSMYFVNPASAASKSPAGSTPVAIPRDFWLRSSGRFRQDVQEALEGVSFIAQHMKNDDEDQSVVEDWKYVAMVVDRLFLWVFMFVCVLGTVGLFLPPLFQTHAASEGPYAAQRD
Description: (§2) All experiments were carried out at human nAChRs expressed in Xenopus oocytes using the method of cDNA expression. Xenopus oocytes were prepared and injected using standard procedures.
Briefly, ovaries were harvested from Xenopus Laevis females that have been deeply anesthetized by cooling at 4° C. and Tricaine methanesulfonate (MS-222 at a concentration of 150 mg/L) in sodium bicarbonate (300 mg/L). Once anesthetized the animal was decapitated and pithed following the rules of animal rights from the Geneva canton. A small piece of ovary was isolated for immediate preparation while the remaining part was placed at 4° C. in a sterile Barth solution containing in mM NaCl 88, KCl 1, NaHCO3 2.4, HEPES 10, MgSO4·7H2O 0.82, Ca(NO3)2·4H2O 0.33, CaCl2·6H2O 0.41, at pH 7.4, and supplemented with 20 ug/ml of kanamycin, 100 unit/ml penicillin. All recordings were performed at 18° C. and cells superfused with OR2 medium containing in mM: NaCl 88, KCl 2.5, HEPES 5, CaCl2·2H2O 1.8, MgCl2·6H2O 1, pH 7.4.
(§3) Currents evoked by ACh or other agonists were recorded using an automated process equipped with standard two-electrode voltage-clamp configuration (TEVC). Data were captured and analyzed using a HiQScreen proprietary data acquisition and analysis software running under Matlab (Mathworks Inc.).
ACh was prepared as a concentrated stock solution (10^−1M) in water and then diluted in the recording medium to obtain the desired test concentration. Compounds were dissolved in OR2 as stock solution (1 mM) and the final dilution to the desired concentration was made on the day of the experiment. OR2 medium contains in mM: NaCl 88.5, KCl 2.5, HEPES 5, CaCl2·2H2 1.8, MgCl2·6H2 1, pH 7.4.
The test concentration of acetylcholine chloride was 1280 uM.
(§4) Injections of cDNAs encoding for the human alpha3beta4, alpha3alpha5beta4, alpha4beta2, and alpha7 were performed in at least 95 oocytes were performed using a proprietary automated injection and receptor expression examined at least two days later. Oocytes were poked with two electrodes and their membrane potential maintained, unless indicated, at −80 mV throughout the experiment.
A protocol to determine agonistic activity in the oocytes expressing the nAChRs was developed. The cells were exposed to a series of increasing concentrations of a compound agonist for 10 seconds each at two minute intervals. The current evoked from exposure to the agonist at each concentration was recorded. For oocytes expressing alpha7 nAChRs, exposure to the agonist was reduced to 5 seconds. This process was repeated for each agonist tested against each type of nAChR expressing cell.
Experimental Procedures: Injections of cDNAs encoding for the human alpha3beta4, alpha3alpha5beta4, alpha4beta2, alpha4alpha6beta2, and alpha7 were performed in at least 95 oocytes using a proprietary automated injection device. Cellular receptor expression was examined at least two days later. Oocytes were poked with two electrodes and their membrane potential maintained, unless indicated, at −80 mV throughout the experiment.
A protocol to determine agonistic activity in the oocytes expressing the nAChRs was developed. Oocytes expressing a nAChR subtype were exposed to a brief test pulse of acetylcholine (1280 uM) while the holding current and response was evaluated. Cells displaying robust currents were washed for 90 seconds. The cells were then exposed to a series of increasing concentrations of a nAChR agonist for 10 seconds each at two minute intervals. The nAChR agonist test concentrations were 0.1, 0.3, 1, 3, 10, 30, 100, 300 (uM). The current evoked from exposure to the agonist at each concentration was recorded.
The target of series [3] is nAChR subtype alpha3beta2 (Homo sapiens, UniProt P17787+P32297). Particulars: in words; no experiment described; cited from earlier work.
Sequence of nAChR subtype alpha3beta2 (P32297 32-505): as the sequence (P32297 32-505) above
Sequence of nAChR subtype alpha3beta2 (P17787 26-502): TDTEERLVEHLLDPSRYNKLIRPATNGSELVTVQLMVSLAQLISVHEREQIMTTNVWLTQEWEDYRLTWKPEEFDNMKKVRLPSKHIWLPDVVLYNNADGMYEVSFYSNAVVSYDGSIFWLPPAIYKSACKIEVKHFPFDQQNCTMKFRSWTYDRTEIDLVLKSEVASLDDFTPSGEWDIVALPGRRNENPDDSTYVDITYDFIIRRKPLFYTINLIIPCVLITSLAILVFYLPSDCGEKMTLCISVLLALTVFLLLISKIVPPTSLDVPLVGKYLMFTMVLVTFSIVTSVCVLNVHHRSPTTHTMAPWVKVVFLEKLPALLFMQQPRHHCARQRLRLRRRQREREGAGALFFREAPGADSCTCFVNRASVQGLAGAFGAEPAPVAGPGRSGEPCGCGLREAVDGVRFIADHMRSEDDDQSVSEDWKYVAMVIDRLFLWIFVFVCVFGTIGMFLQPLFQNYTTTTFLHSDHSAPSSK
The nature of series [4]: Pharmacokinetics in human subjects after 28 days of intranasal administration of Compound 1 hemigalactarate salt (Example 5). The class given is in vivo. Here is the method:
Blood plasma for the patients was collected on Day 29 predose (time 0) and after a series of time points (10 min, 20 min, 30 min, 1 hr, 2 hrs, 4 hrs, 5 hrs, 6 hrs, 7 hrs, 8 hrs, and 24 hrs) after a single administration of drug. The blood plasma was analyzed for Compound 1.
The following pharmacokinetic parameters for Compound 1 were calculated: • Cmax: Maximum observed concentration, observed by inspection of individual study participant plasma concentration time plots. • Tmax: Time of maximum observed concentration, obtained directly from the observed concentration time data. • AUClast: The area under the plasma concentration time curve, from time 0 to the last measurable non-zero concentration, calculated by a combination of linear and logarithmic trapezoidal methods (Linear up/log down method). • AUC0-4 h: The area under the plasma concentration time curve, from time 0 to the 4 h time point, calculated by a combination of linear and logarithmic trapezoidal methods (Linear up/log down method). • AUCinf: The area from zero time (pre-dose) extrapolated to infinite time (AUCinf) will be calculated as follows: AUCinf=AUClast+Cz/λz • AUC % Extrap: The percentage of AUCinf obtained by extrapolation (AUC % Extrap) will be calculated as follows: […]

The target of series [5] is human alpha4alpha6beta2 nAChR (Homo sapiens, UniProt P17787+P43681+Q15825). Kind of series: Agonist activity at human alpha4alpha6beta2 nAChR expressed in Xenopus oocytes (two-electrode voltage clamp). It counts as cell-based. Particulars: for agonist character at nAChR alpha4alpha6beta2: in words.
Sequence of human alpha4alpha6beta2 nAChR (P43681 29-627 limits assumed): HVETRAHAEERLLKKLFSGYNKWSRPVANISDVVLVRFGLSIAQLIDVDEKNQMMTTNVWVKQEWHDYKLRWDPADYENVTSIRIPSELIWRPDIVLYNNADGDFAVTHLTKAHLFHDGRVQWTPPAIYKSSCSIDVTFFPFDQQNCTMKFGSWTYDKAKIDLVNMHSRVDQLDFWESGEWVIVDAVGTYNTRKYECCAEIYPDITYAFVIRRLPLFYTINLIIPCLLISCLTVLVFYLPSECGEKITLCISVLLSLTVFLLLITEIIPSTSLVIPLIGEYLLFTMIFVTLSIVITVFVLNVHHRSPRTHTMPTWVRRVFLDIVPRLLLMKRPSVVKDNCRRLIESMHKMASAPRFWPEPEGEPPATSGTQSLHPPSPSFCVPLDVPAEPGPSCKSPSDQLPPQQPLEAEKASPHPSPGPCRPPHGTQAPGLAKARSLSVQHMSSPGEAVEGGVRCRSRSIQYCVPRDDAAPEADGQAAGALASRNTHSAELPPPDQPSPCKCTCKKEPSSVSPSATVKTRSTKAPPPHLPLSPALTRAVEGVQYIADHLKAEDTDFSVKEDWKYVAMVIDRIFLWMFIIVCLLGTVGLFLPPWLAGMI
Sequence of human alpha4alpha6beta2 nAChR (Q15825 26-494): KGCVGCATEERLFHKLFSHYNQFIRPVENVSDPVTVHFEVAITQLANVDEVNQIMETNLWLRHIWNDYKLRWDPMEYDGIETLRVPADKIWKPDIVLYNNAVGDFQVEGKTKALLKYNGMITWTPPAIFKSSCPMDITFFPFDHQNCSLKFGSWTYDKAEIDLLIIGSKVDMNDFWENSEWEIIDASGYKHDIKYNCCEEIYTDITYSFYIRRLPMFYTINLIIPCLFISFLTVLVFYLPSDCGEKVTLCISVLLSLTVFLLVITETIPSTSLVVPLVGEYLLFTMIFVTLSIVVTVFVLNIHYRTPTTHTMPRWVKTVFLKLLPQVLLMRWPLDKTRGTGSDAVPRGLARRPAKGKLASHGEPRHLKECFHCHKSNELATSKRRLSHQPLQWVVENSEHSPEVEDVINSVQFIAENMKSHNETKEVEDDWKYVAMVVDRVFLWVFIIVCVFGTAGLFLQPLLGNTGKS
Sequence of human alpha4alpha6beta2 nAChR (P17787 26-502): as the sequence (P17787 26-502) above
From the text: as §1

Series [6] addresses T3, human alpha7 nAChR (Homo sapiens, UniProt P36544). Kind of series: Agonist activity at human alpha7 nAChR expressed in Xenopus oocytes (two-electrode voltage clamp). Particulars: for agonist character at nAChR alpha7: in words. The class given is cell-based.
From the text: as §1

Series [7] deals with T4, human alpha4beta2 nAChR (Homo sapiens, UniProt P17787+P43681). Kind of series: Agonist activity at human alpha4beta2 nAChR expressed in Xenopus oocytes (two-electrode voltage clamp). The class given is cell-based. Particulars: for agonist character at nAChR alpha4beta2: in words; for effect on the subsequent ACh-evoked current, alpha4beta2: after the agonist concentration series.
T4 sequence (P43681 29-627 limits assumed): as the sequence (P43681 29-627 limits assumed) above
T4 sequence (P17787 26-502): as the sequence (P17787 26-502) above
From the text: as §1

Series [8] concerns the target T4, human alpha4beta2 nAChR. Nature of the series: Desensitization / antagonistic activity, cumulative exposure in the low concentration range, alpha4beta2 in Xenopus oocytes. It counts as cell-based. Particulars: concentrations up to 300 nM; in words; dihydrate.
Series [9] deals with T1, human alpha3beta4 nAChR. Nature of the series: Desensitization / antagonistic activity, cumulative exposure in the low concentration range, alpha3beta4 in Xenopus oocytes. Particulars: concentrations up to 300 nM, in words. It counts as cell-based.
Series [10] has as its target T3, human alpha7 nAChR. Kind of series: Desensitization / antagonistic activity, cumulative exposure in the low concentration range, alpha7 in Xenopus oocytes. The class given is cell-based. Particulars: concentrations up to 300 nM; in words; dihydrate.
Description: as §2, §3, §4
Series [11] addresses T2, human alpha3alpha5beta4 nAChR. Nature of the series: Desensitization / antagonistic activity, cumulative exposure in the low concentration range, alpha3alpha5beta4 in Xenopus oocytes. Particulars: concentrations up to 300 nM; in words; dihydrate. The class given is cell-based.
The next series concerns Caco-2 cells. Kind of series: Caco-2 cell viability, CellTiter-Glo assay. The class given is cell-based, human. Here is the method:
In parallel, cell viability in the presence of varenicline tartrate and/or copper chloride was determined using CellTiter-Glo assay (Promega), which measures intracellular adenosine triphosphate levels.
Cells treated with DMSO (solvent control) served as controls. Following incubation, […] of CellTiter-Glo substrate was added to each well and the samples were incubated for 10 min on a rocking platform. Following this 10 min incubation, luminescence was recorded using a POLAR star OPTIMA plate reader (BMG Labtech). Samples were run in triplicate and data is normalized with mean luminescence of DMSO only treated cells as 100% viability.
All statistical analyses were performed using GraphPad Prism (version 9, GraphPad Software, Inc.).
(Cellular ATP, detected with luciferase, serves as a proxy for viable cell number.)

Another series concerns SARS-CoV-2. Nature of the series: Infection of Caco-2 cells after exposure to SARS-CoV-2 (plaque titration of supernatant). Particulars: for percentage of Caco-2 cells infected with SARS-CoV-2, concentration dependence: 24 hours after exposure, MOI of 3, versus vehicle control, in words.
Series [12] concerns the target nAChR subtype alpha6beta2 (Homo sapiens, UniProt P17787+Q15825). Particulars: in words; no experiment described; cited from earlier work.
Series [13] addresses T1, human alpha3beta4 nAChR. Kind of series: Sustained exposure to 300 uM varenicline tartrate and its recovery, alpha3beta4. Particulars: 300 uM applied during three minutes; in words. The class given is cell-based.
Where [14] appears, read: listed as Compound 1 citrate, mono-citrate.
Setting [15] is: listed as Compound 1 hemi-galactarate dihydrate, dihydrate.
Setting [16] is: test concentrations 0.1-300 uM, ACh 1280 uM reference.

Several values for one entry are separate records, joined by “and”; a condition that tells them apart may be missing. Equal values may be shown once. Entries after “also recorded” stand apart in the source; their conditions may differ. Where a name gives a salt, the structure may show the parent alone.

T1 sequence (P32297 32-505): as the sequence (P32297 32-505) above
T1 sequence (P30926 22-498): as the sequence (P30926 22-498) above
T3 sequence (P36544 23-502): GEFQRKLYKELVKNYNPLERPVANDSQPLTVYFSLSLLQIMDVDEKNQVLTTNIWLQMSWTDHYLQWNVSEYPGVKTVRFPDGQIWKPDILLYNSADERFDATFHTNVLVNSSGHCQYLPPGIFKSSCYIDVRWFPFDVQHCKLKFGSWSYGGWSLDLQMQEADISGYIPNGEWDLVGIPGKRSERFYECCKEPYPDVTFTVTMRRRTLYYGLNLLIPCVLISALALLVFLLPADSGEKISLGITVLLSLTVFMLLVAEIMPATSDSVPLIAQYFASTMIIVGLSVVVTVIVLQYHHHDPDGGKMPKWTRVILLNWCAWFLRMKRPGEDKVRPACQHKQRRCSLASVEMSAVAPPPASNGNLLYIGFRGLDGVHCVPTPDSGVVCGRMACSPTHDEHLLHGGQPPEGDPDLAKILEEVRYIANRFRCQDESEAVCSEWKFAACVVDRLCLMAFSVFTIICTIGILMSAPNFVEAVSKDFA
Sequence of nAChR subtype alpha6beta2 (Q15825 26-494): as the sequence (Q15825 26-494) above
Sequence of nAChR subtype alpha6beta2 (P17787 26-502): as the sequence (P17787 26-502) above

Turning to `C(=C\[C@H]1CCNC1)/c1cncnc1` [Compound 1, (R)-5-((E)-2-pyrrolidin-3-ylvinyl)pyrimidine], the “agonist character at nAChR alpha3beta4” value at human alpha3beta4 nAChR [1] is recorded as “full agonist”. Further, the “agonist character at nAChR alpha3alpha5beta4” value in series [2] is “full agonist”. Besides, the “agonist character at nAChR alpha3beta2” value in [3] was “partial agonist”. In addition, in series [4] (Day 29, N=7), the “AUC % Extrap, Max” value is on record as 41.1%; the “AUC % Extrap, Mean” value stood at 21.3%; the “AUC % Extrap, Median” value turned out to be 23.3%; the “AUC % Extrap, Min” value was 3.69% and 3.67%. In addition, the “detection in plasma ten minutes after administration” value in series [4] (Day 29, 7 subjects) is “detected in plasma from all subjects”. For the same compound, in [4] (if administered every 12 hours (4 half-lives), from maximum half-life 2.83 h), the “fraction cleared from systemic circulation before the next administration” value is more than 94%. In [5], the “agonist character at nAChR alpha4alpha6beta2” value is “full agonist”. Also, the “agonist character at nAChR alpha7” value at human alpha7 nAChR [6] is “full agonist; also recorded: weak partial agonist”. The “agonist character at nAChR alpha4beta2” value on human alpha4beta2 nAChR [7] is “full agonist”.

One may read the EC50 as the concentration needed to bring the measured effect to its halfway point. With `C(=C\[C@H]1CCNC1)/c1cncnc1` [compound 1 citrate, (R)-5-((E)pyrrolidin-3-ylvinyl)pyrimidine mono-citrate], the “agonist character at nAChR alpha3beta4” value at human alpha3beta4 nAChR [1] (setting [14]) is recorded as “almost as a full agonist”. The compound further returned a concentration for a half-maximal effect (EC50) in series [2] (ACh 1280 uM reference) of 83 ± 9.05 µM. Also, the “agonist character at nAChR alpha3alpha5beta4” value in series [2] (setting [14]) is recorded as “almost as a full agonist”. In addition, the “agonist character at nAChR alpha4alpha6beta2” value in [5] (setting [14]) is “almost as a full agonist”. Moreover, the “current evoked at 300 uM, percent of the maximal ACh-evoked current, alpha7” value on human alpha7 nAChR [6] (setting [14]) and at human alpha7 nAChR [6] (mono-citrate) was 25% throughout. For the same compound, the figures for the “agonist character at nAChR alpha7” value at human alpha7 nAChR [6] (setting [14]) and on human alpha7 nAChR [6] (mono-citrate) were “poor agonist” and “weak partial agonist”, respectively. Besides, the “effect on the subsequent ACh-evoked current, alpha4beta2” value (from here on “effect … alpha4beta2”) on human alpha4beta2 nAChR [7] (mono-citrate) is on record as “Significant inhibition of the current evoked by the second Ach exposure”. Moreover, the “agonist character at nAChR alpha4beta2” value at human alpha4beta2 nAChR [7] (setting [14]) is listed as “almost as a full agonist”.

Take `C(=C\[C@H]1CCNC1)/c1cncnc1` [compound 1 hemi-galactarate dihydrate, (R)-5-((E)-2-pyrrolidin-3-ylvinyl)pyrimidine hemigalactarate dihydrate]: at human alpha3beta4 nAChR [1] (setting [15]), the “agonist character at nAChR alpha3beta4” value is listed as “almost as a full agonist”. The “current evoked, percent of the maximal ACh-evoked currents, alpha3beta4” value at human alpha3beta4 nAChR [1] (maximal response) was “about 94%”. In series [2] (ACh 1280 uM reference), the EC50 was 32.1 ± 2.16 µM. The “agonist character at nAChR alpha3alpha5beta4” value in [2] (setting [15]) is “almost as a full agonist”. In [2] (maximal response), the “current evoked, percent of the maximal ACh-evoked currents, alpha3alpha5beta4” value is reported as “about 94%”. Further, the “inhibition of ACh-evoked current on sustained exposure, alpha4beta2” value on human alpha4beta2 nAChR [8] is “marked inhibition; also recorded: inhibits in a concentration-dependent manner”. Also, the “current evoked at 300 uM, percent of the maximal ACh-evoked current, alpha7” value at human alpha7 nAChR [6] (dihydrate) was 24%. In addition, the “agonist character at nAChR alpha7” value on human alpha7 nAChR [6] (dihydrate) is “poor agonist”; on human alpha7 nAChR [6] (setting [15]), “more potent agonist than ACh”. Besides, at human alpha3beta4 nAChR [9] (dihydrate), the “inhibition of ACh-evoked current on sustained exposure, alpha3beta4” value is “insensitive; also recorded: no significant inhibition”. Further, the “inhibition of ACh-evoked current on sustained exposure, alpha7” value at human alpha7 nAChR [10] was “insensitive; also recorded: no significant inhibition”. In addition, the “effect … alpha4beta2” value on human alpha4beta2 nAChR [7] (dihydrate) is on record as “enhanced the subsequent ACh-evoked currents”. The “agonist character at nAChR alpha4beta2” value at human alpha4beta2 nAChR [7] (setting [15]) is “more potent agonist than ACh”. Also, the “evoked currents larger than the maximal ACh responses, alpha4beta2” value on human alpha4beta2 nAChR [7] (relative to maximal ACh response) is reported as “about 2 fold”. In addition, the “inhibition of ACh-evoked current on sustained exposure, alpha3alpha5beta4” value in series [11] is “marked inhibition; also recorded: inhibits in a concentration-dependent manner”.

In the case of `[Cl][Cu][Cl]` [copper chloride], the “cellular viability at 72 hours post-drug exposure” value in the series on Caco-2 cells (copper chloride concentrations of less than 1 uM) is listed as “no significant impact on cellular viability”; in the series on Caco-2 cells (exposures greater than 1 uM copper chloride) it was “Some cellular toxicity”. The “percentage of Caco-2 cells infected with SARS-CoV-2, concentration dependence” value with SARS-CoV-2 is “dose-dependent decrease”.

On to `c1cnc2cc3c(cc2n1)[C@@H]1CNC[C@H]3C1` [varenicline], for which, at human alpha3beta4 nAChR [1], the “agonist character at nAChR alpha3beta4” value is given as “partial agonist”. The “agonist character at nAChR alpha3alpha5beta4” value in series [2] is “partial agonist”. For the same compound, the “effect on the subsequent ACh-evoked current, alpha4alpha6beta2” value in series [5] (after the agonist concentration series) was “significant inhibition of the subsequent ACh-evoked current”. The “response compared to the ACh response, alpha4alpha6beta2” value in series [5] (concentrations from 0.1 uM to 300 uM) was not above 6%. Moreover, the “agonist character at nAChR alpha4alpha6beta2” value in series [5] is on record as “weak partial agonist”. In series [12], the “agonist character at nAChR alpha6beta2” value was “partial agonist”. Moreover, on human alpha7 nAChR [6], the “agonist character at nAChR alpha7” value was “full agonist”. Moreover, the “agonist character at nAChR alpha4beta2” value at human alpha4beta2 nAChR [7] is given as “partial agonist”.

“varenicline tartrate [reference compound]”: the “current evoked by sustained exposure, alpha3beta4” value at human alpha3beta4 nAChR [13] is recorded as “larger current amplitude; also recorded: rather large response”. Also, the “agonist character at nAChR alpha3beta4” value at human alpha3beta4 nAChR [1] is on record as “partial agonist”. Also, the “EC50 at nAChR alpha3beta4” value on human alpha3beta4 nAChR [1] (setting [16]) is “low micromolar range”. Moreover, the “agonist character at nAChR alpha3alpha5beta4” value in series [2] is “partial agonist”. In addition, in series [2] (setting [16]), the “EC50 at nAChR alpha3alpha5beta4” value is listed as “low micromolar range”. Also, the “cellular viability at 72 hours post-drug exposure” value in the series with Caco-2 cells (even at 100 uM varenicline tartrate) is reported as “no significant impact on cellular viability”. The “infection rate of the cells without copper chloride” value in the series with SARS-CoV-2 (0.1 uM and 0.5 uM varenicline tartrate, 24 hours, MOI 3, normalized to untreated (FIG. 3)) is approximately 100%. Moreover, the “percentage of Caco-2 cells infected with SARS-CoV-2, concentration dependence” value in the series on SARS-CoV-2 is “dose-dependent decrease”. Also, the “inhibition of ACh-evoked current on sustained exposure, alpha3beta4” value on human alpha3beta4 nAChR [9] was “very modest effect; also recorded: no significant inhibition”. Moreover, at human alpha4beta2 nAChR [7], the “effect … alpha4beta2” value is on record as “major inhibition of the subsequent ACh-evoked current” and the “agonist character at nAChR alpha4beta2” value is recorded as “partial agonist”. Moreover, at human alpha4beta2 nAChR [7] (listed as Varenicline tartrate), the “agonist character at nAChR alpha4beta2” value is recorded as “very poor agonist”. In addition, the “EC50 at nAChR alpha4beta2” value at human alpha4beta2 nAChR [7] (setting [16]) was “low micromolar range”.
